Test results as given in patent US8168639B2, “Heterotricyclic compounds as serotonergic and/or dopaminergic agents and uses thereof” (ATIR Holding S.A., priority 2006, dated 2012).

How the values were obtained:
[1] = molecular target: T1, D4.4 type dopamine receptor (human recombinant, CHO cells) (Homo sapiens, UniProt P21917); assay: Competitive binding to D4.4 dopamine receptor, [3H]-YM-09151-2 radioligand; details: [3H]-YM-09151-2 0.3 nM; for D4.4(h) receptor Competitive Binding, % at 100 nM: 100 nM compound; for D4.4(h) receptor Competitive Binding, % at 1 μM: 1 μM compound
T1 construct: expressed in transfected cells; host or cells: CHO cells
T1 sequence (P21917 1-419): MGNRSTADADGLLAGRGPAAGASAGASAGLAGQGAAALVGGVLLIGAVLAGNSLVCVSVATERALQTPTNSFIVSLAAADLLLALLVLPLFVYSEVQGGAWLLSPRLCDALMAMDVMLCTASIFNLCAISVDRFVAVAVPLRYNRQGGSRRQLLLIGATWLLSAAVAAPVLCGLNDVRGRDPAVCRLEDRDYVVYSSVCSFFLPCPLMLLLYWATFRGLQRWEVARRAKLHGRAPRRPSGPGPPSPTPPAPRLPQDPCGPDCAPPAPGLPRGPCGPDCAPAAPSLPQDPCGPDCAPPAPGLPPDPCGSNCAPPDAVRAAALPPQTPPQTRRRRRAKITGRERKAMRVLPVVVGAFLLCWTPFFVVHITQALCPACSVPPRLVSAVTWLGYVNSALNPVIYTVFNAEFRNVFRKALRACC
Description: Compounds were assayed for competitive binding to the D4.4 type dopamine receptors, which is expressed as human recombinant proteins in CHO cells, as described, for example, in Jarvis et al. (1973); Van Tol et al. (1991) and Van Tol et al. (1992).
Determination of binding to D4.4 receptor was performed using [^3H]-YM-09151-2 (70-87 Ci/mmol, 0.3 nM), as a radioligand, in with the presence of various concentrations of the tested compound. Reactions were carried out in 50 mM TRIS-HCl (pH 7.4) containing 5 mM MgCl2, 5 mM EDTA, 5 mM KCl and 1.5 mM CaCl2, for 60 minutes at 22° C. The reaction was terminated by rapid vacuum filtration onto glass fiber filters. Radioactivity trapped onto the filters was determined (counted) and compared to control values in order to accurately evaluate any interaction of the tested compound(s) with the cloned dopamine D4.4 binding site.

[2] = molecular target: T2, 5-HT1A type serotonin receptor (human recombinant, HEK-293 cells) (Homo sapiens, UniProt P08908); assay: Competitive binding to 5-HT1A receptor, [3H]-8-OH-DPAT radioligand; details: [3H]-8-OH-DPAT 0.5 nM; for 5HT1A receptor Binding % at 1 nM: 1 nM compound; for 5HT1A receptor Binding % at 10 nM: 10 nM compound; for 5HT1A receptor Binding % at 100 nM: 100 nM compound; for 5HT1A receptor Binding % at 1 μM: 1 μM compound; for 5HT1A receptor Binding % at 5 μM: 5 μM compound
T2 construct: expressed in transfected cells; host or cells: HEK-293 cells
T2 sequence (P08908 1-422): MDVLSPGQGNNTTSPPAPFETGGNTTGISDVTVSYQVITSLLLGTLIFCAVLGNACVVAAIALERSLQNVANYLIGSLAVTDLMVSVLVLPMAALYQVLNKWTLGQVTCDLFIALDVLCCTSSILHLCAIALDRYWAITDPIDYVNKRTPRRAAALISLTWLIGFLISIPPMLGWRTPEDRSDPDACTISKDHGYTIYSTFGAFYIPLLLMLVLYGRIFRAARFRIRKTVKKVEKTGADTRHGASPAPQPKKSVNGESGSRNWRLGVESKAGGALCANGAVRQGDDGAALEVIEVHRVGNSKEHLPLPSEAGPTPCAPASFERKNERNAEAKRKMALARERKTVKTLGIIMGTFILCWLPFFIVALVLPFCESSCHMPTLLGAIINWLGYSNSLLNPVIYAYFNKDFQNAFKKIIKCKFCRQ
Description: Compounds were assayed for competitive binding to the 5-HT1A type serotonin receptor. The receptor is expressed as human recombinant proteins in HEK-293 cells, as described, for example, in Hoyer et al. (1985) and Schoeffter and Hoyer (1989).
Determination of binding to 5-HT1A receptor was performed using [^3H]-8-OH-DPAT, a 5-HT1A receptor ligand (Hoyer et al., 1985), as a radioligand (221 Ci/mmol, 0.5 nM) in the presence of various concentrations of the tested compound. Reactions were carried out in 50 mM Tris-HCl (pH 7.4) containing 10 mM MgSO4, 0.5 mM EDTA, and 0.1% ascorbic acid for 60 minutes at 25° C. The reaction was terminated by rapid vacuum filtration onto glass fiber filters. Radioactivity trapped onto the filters was determined (counted) and compared to control values in order to accurately evaluate any interaction of the test compound(s) with the cloned 5-HT1A receptor binding site.

[3] = molecular target: T3, Human recombinant serotonin 5-HT1A receptors expressed in CHO cells (Homo sapiens, UniProt P08908); assay: [35S]GTPγS 5-HT1A activity assay; format: biochemical; details: 10 μM compound; [35S]GTPγS binding increase relative to serotonin
T3 construct: expressed in transfected cells; host or cells: CHO cells
T3 sequence (P08908 1-422): T2 sequence (P08908 1-422)
Description: Human recombinant serotonin 5-HT1A receptors expressed in CHO cells were used. The tested compound were incubated with cell membranes and [^35S]GTPγS for 30 minutes in modified HEPES buffer (pH=7.4). Test compound-induced increase of [^35S]GTPγS binding was quantified relative to serotonin-induced increase of [^35S]GTPγS. Compounds were tested at concentrations of 10, 1 and 0.1 μM.

Sprague Dawley rats = assay: Penile erection test in rats; format: in vivo, rat; details: 0.3 µmol/kg, subcutaneous; for Percent of animals showing erection response: moderate to strong erection
Description: Penile erection was tested in Sprague Dawley rats. The experimental group included 50 adult male rats, with body weights in the range of 312-330 grams. The animals were housed for acclimatization in a cage, and water and food were supplied ad libitum.
Penile erection experiments were carried out in morning hours between 9 AM and 11 AM, in a dark room with a red light source. Control groups included 10 animals that received saline as a placebo, and 10 animals that received 0.3 μmol/kg body weight of apomorphine hydrochloride in 1 ml of saline, as a positive control. […]
Penile erection was tested in Sprague Dawley rats, according to the protocol described hereinabove.

[4] = tested on: Male ferrets (Mustela putorius furo); assay: Ferret emesis model; format: in vivo, ferret (Mustela putorius furo); details: 0.3 μmol/kg subcutaneous, observed 90 minutes
Description: Male ferrets (Mustela putorius furo) were made to fast overnight before experiments. 18 animals (weighing 0.8-1.0 kg) were divided into the following three groups of six:
(1) test group—received the compound being tested, e dissolved in 1 ml saline at a dose of 0.3 μmol/kg body weight, administered subcutaneously;
(2) negative control—received saline; and
(3) positive control—received apomorphine.
Animals were placed individually in observation cages and received cat food 30 minutes before the experiment.
One ml of saline was administered subcutaneously. Apomorphine and the test compound were dissolved in 1 ml saline at a dose of 0.3 μmol/kg body weight. Induced emesis or nausea was determined by direct observation during 90 minutes following drug injection. Nausea was characterized by behavior such as licking, gagging, backing, head burying and intense abdominal grooming. Emesis was characterized by rhythmic abdominal contractions.

## O=c1[nH]c(CN2CCC(c3ccccc3)CC2)nc2sc3c(c12)CCCC3 [Compound B-93]
[1]
  D4.4(h) receptor Competitive Binding, % at 100 nM: 16.69%
  D4.4(h) receptor Competitive Binding, % at 1 μM: 81.97%
[2]
  5HT1A receptor Binding % at 1 nM: active
  5HT1A receptor Binding % at 10 nM: active
  5HT1A receptor Binding % at 100 nM: active
  5HT1A receptor Binding % at 1 μM: active
  5HT1A receptor Binding % at 5 μM: active
[3]
  % activation of 5HT1A at 10 μM: active

## CCOc1ccccc1N1CCN(Cc2nc3sc4c(c3c(=O)[nH]2)CCCC4)CC1 [Compound B-94]
[1]
  D4.4(h) receptor Competitive Binding, % at 100 nM: 19.14%
  D4.4(h) receptor Competitive Binding, % at 1 μM: 89.02%
[2]
  5HT1A receptor Binding % at 1 nM: 0.9%
  5HT1A receptor Binding % at 10 nM: 20.23%
  5HT1A receptor Binding % at 100 nM: 44.56%
  5HT1A receptor Binding % at 1 μM: 62.77%
  5HT1A receptor Binding % at 5 μM: 97.67%
[3]
  % activation of 5HT1A at 10 μM: 50%

## O=c1[nH]c(CN2CCN(c3cccc(O)c3)CC2)nc2sc3c(c12)CCCC3 [Compound B-95]
[1]
  D4.4(h) receptor Competitive Binding, % at 100 nM: 32.26%
  D4.4(h) receptor Competitive Binding, % at 1 μM: 86.68%
[2]
  5HT1A receptor Binding % at 1 nM: active
  5HT1A receptor Binding % at 10 nM: active
  5HT1A receptor Binding % at 100 nM: active
  5HT1A receptor Binding % at 1 μM: active
  5HT1A receptor Binding % at 5 μM: active
[3]
  % activation of 5HT1A at 10 μM: active

## Oc1cccc(N2CCN(Cc3cc4c(cn3)[nH]c3ccccc34)CC2)c1 [Compound B-96]
[1]
  D4.4(h) receptor Competitive Binding, % at 100 nM: 87.6%
  D4.4(h) receptor Competitive Binding, % at 1 μM: 102.45%
[2]
  5HT1A receptor Binding % at 1 nM: active
  5HT1A receptor Binding % at 10 nM: active
  5HT1A receptor Binding % at 100 nM: active
  5HT1A receptor Binding % at 1 μM: active
  5HT1A receptor Binding % at 5 μM: active
[3]
  % activation of 5HT1A at 10 μM: active

## CCOc1ccccc1N1CCN(Cc2cc3c(cn2)[nH]c2ccccc23)CC1 [Compound B-97]
[1]
  D4.4(h) receptor Competitive Binding, % at 100 nM: 74.27%
  D4.4(h) receptor Competitive Binding, % at 1 μM: 100.99%
[2]
  5HT1A receptor Binding % at 1 nM: 1.78%
  5HT1A receptor Binding % at 10 nM: 37.48%
  5HT1A receptor Binding % at 100 nM: 75.08%
  5HT1A receptor Binding % at 1 μM: 99.45%
  5HT1A receptor Binding % at 5 μM: 100.34%
[3]
  % activation of 5HT1A at 10 μM: 48%

## COc1ccccc1N1CCN(Cc2cc3c(cn2)[nH]c2ccccc23)CC1 [Compound B-99]
[1]
  D4.4(h) receptor Competitive Binding, % at 100 nM: 97.43%
  D4.4(h) receptor Competitive Binding, % at 1 μM: 102.4%
Sprague Dawley rats
  Number of animals showing moderate to strong erection: 26 of the 30 animals
  Time during which erection was shown: 45 to 70 min
  Percent of animals showing erection response: 87%
[2]
  5HT1A receptor Binding % at 1 nM: active
  5HT1A receptor Binding % at 10 nM: active
  5HT1A receptor Binding % at 100 nM: active
  5HT1A receptor Binding % at 1 μM: active
  5HT1A receptor Binding % at 5 μM: active
[3]
  % activation of 5HT1A at 10 μM: active
[4]
  Number of ferrets showing signs of nausea and/or emesis: none

## CN1CCc2cccc3c2[C@H]1Cc1ccc(O)c(O)c1-3 [apomorphine, reference compound]
Sprague Dawley rats
  Time during which erection was shown: 15 to 25 min
  Percent of animals showing erection response: 70%
[4]
  Number of ferrets showing signs of nausea and/or emesis: 4 of the 6 ferrets
